The source made the active and inactive calls. The calls are words filed in the database; no cut-off is given here.
The compounds below were run against T1, Tyrosinase (Agaricus bisporus) (UniProt O42713) (assay: Inhibition of mushroom tyrosinase at 50 uM preincubated for 5 mins before addition of L-DOPA measured after 10 mins).
T1 sequence (whole entry): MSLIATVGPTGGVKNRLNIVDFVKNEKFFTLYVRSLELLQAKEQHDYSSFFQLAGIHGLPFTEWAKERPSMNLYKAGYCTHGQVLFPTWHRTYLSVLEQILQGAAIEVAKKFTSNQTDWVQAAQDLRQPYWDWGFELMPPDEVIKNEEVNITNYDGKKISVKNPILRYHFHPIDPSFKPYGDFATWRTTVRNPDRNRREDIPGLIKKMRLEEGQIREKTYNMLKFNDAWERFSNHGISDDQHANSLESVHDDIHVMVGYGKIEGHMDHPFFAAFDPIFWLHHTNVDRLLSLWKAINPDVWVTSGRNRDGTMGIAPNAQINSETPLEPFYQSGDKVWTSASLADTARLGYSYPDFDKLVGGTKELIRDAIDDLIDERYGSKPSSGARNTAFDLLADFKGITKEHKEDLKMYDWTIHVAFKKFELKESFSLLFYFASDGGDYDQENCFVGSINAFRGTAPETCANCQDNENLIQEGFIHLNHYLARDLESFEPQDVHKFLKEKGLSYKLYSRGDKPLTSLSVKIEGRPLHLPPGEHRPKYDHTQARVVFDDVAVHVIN

Row | SMILES | inhibition
1 | c1ccc(-c2nnc(SCCN3CCCCC3)o2)cc1 | inactive
2 | Clc1ccccc1-c1nnc(SCCN2CCOCC2)o1 | inactive
3 | Clc1ccccc1-c1nnc(SCCN2CCCCC2)o1 | inactive
4 | c1ccc2c(Cc3nnc4sc(-c5nccc6ccccc56)nn34)cccc2c1 | inactive
5 | c1ccc2c(Cc3nnc(SCCN4CCCCC4)o3)cccc2c1 | inactive

Continued, values first:

Row | inhibition | SMILES
6 | inactive | Clc1ccccc1-c1nnc2sc(-c3cccnc3)nn12
7 | inactive | Clc1ccccc1-c1nnc2sc(-c3nccc4ccccc34)nn12
8 | inactive | Cc1cc(C)n(-c2ccc(-c3nn4c(Cc5cccc6ccccc56)nnc4s3)cc2)n1
9 | inactive | Cc1cc(C)n(-c2ccc(-c3nn4c(-c5ccccc5)nnc4s3)cc2)n1
10 | inactive | Cc1cc(C)n(-c2ccc(-c3nn4c(-c5ccccc5Cl)nnc4s3)cc2)n1
11 | inactive | c1ccc(-c2nnc3sc(-c4nccc5ccccc45)nn23)cc1

These compounds were tested against T2, Tyrosinase (Agaricus bisporus, UniProt O42713).
T2 sequence (O42713 whole entry): T1 sequence (whole entry)
Description: Inhibition of mushroom tyrosinase preincubated for 5 mins before addition of L-DOPA measured after 10 mins

Row | IC50 [µM] | SMILES
12 | 1.49 | CN1CCN(Cn2nc(Cc3cccc4ccccc34)oc2=S)CC1
13 | 0.97 | S=c1oc(Cc2cccc3ccccc23)nn1CN1CCCCC1
14 | 1.34 | S=c1oc(Cc2cccc3ccccc23)nn1CN1CCOCC1
15 | 1.33 | S=c1oc(Cc2cccc3ccccc23)nn1CN1CCCC1
16 | 0.87 | S=c1oc(Cc2cccc3ccccc23)nn1CN1CCNCC1

Reference: ChEMBL document CHEMBL1158619, “Synthesis and biological activity of oxadiazole and triazolothiadiazole derivatives as tyrosinase inhibitors” (Bioorg Med Chem Lett, 2010)
